Results reported in ChEMBL document CHEMBL1201862, “PubChem BioAssay data set” (2004).
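Test compounds were applied to cells in 96-well plates for 48 hours at 5 doses. GI50: concentration for 50% inhibition of growth.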 Activity calls are given as the source filed them. No stated cut-off is given here; in the data, active = GI50 up to about 1.1 µM and inactive = higher.

Legend:
Assay in all cases: NCI anticancer screen, dose series, 48 h
SN12C = system: SN12C
A498 = system: A498
SF-295 = system: SF-295
PC-3 = system: PC-3
COLO 205 = system: COLO 205
HL-60 = system: HL-60
HCT-15 = system: HCT-15
IGROV-1 = system: IGROV-1
SK-OV-3 = system: SK-OV-3
U-251 = system: U-251
SK-MEL-28 = system: SK-MEL-28
MDA-MB-435 = system: MDA-MB-435
MOLT-4 = system: MOLT-4
SF-539 = system: SF-539
SW-620 = system: SW-620
OVCAR-3 = system: OVCAR-3
OVCAR-4 = system: OVCAR-4
SR = system: SR
K562 = system: K562
HOP-92 = system: HOP-92

| Compound | GI50 (SN12C) | GI50 (A498) | GI50 (SF-295) | GI50 (PC-3) | GI50 (COLO 205) | GI50 (HL-60) | GI50 (HCT-15) [µM] | GI50 (IGROV-1) | GI50 (SK-OV-3) | GI50 (U-251) | GI50 (SK-MEL-28) | GI50 (MDA-MB-435) | GI50 (MOLT-4) | GI50 (SF-539) | GI50 (SW-620) | GI50 (OVCAR-3) | GI50 (OVCAR-4) | GI50 (SR) | GI50 (K562) | GI50 (HOP-92) |
| --- | --- | --- | --- | --- | --- | --- | --- | --- | --- | --- | --- | --- | --- | --- | --- | --- | --- | --- | --- | --- |
| Nc1ccc2[nH]cc(CCC(=O)O)c2c1 | > 100 µM (inactive) | > 100 µM (inactive) | > 100 µM (inactive) | > 100 µM (inactive) | > 100 µM (inactive) | 27.3 µM (inactive) | > 100 | > 100 µM (inactive) | > 100 µM (inactive) | > 100 µM (inactive) | > 100 µM (inactive) | > 100 µM (inactive) | > 100 µM (inactive) | > 100 µM (inactive) | 88.1 µM (inactive) | > 100 µM (inactive) | > 100 µM (inactive) |  |  |  |
| C=CCCCC(C#N)(c1ccccc1)N1CCCC1 (configuration not stated) | > 100 µM (inactive) | > 100 µM (inactive) | > 100 µM (inactive) |  | > 100 µM (inactive) | > 100 µM (inactive) | > 100 | > 100 µM (inactive) | > 100 µM (inactive) | > 100 µM (inactive) | > 100 µM (inactive) |  | > 100 µM (inactive) | > 100 µM (inactive) | > 100 µM (inactive) | > 100 µM (inactive) | > 100 µM (inactive) | > 100 µM (inactive) | > 100 µM (inactive) | > 100 µM (inactive) |
| N#CC(C#N)=C1NC(=O)CC(=O)N1 | > 100 µM (inactive) | > 100 µM (inactive) | > 100 µM (inactive) |  | > 100 µM (inactive) | > 100 µM (inactive) | > 100 | > 100 µM (inactive) | > 100 µM (inactive) | > 100 µM (inactive) |  |  | > 100 µM (inactive) | > 100 µM (inactive) | > 100 µM (inactive) | > 100 µM (inactive) | > 100 µM (inactive) | > 100 µM (inactive) | > 100 µM (inactive) | > 100 µM (inactive) |
| Cn1c(=O)c2c3ccccc3c(C(=O)c3ccccc3)n2c2ccccc21 | 9.33 µM (inactive) | 7.31 µM (inactive) | 5.69 µM (inactive) |  | 5.51 µM (inactive) | 4.65 µM (inactive) | 3.4 | > 100 µM (inactive) |  | 18.9 µM (inactive) | 17.8 µM (inactive) |  | 3.94 µM (inactive) | 16.3 µM (inactive) | 5.78 µM (inactive) | 2.94 µM (inactive) | 22.6 µM (inactive) | 2.45 µM (inactive) | 4.08 µM (inactive) | 3.84 µM (inactive) |
| CSC(=N)N1N=C2c3ccccc3CC[C@@H]2[C@@H]1c1ccccc1 | 16.4 µM (inactive) | 16.7 µM (inactive) | 14.4 µM (inactive) |  | 13.1 µM (inactive) | 10.6 µM (inactive) | 15.7 | 14.5 µM (inactive) | 18.1 µM (inactive) | 17.1 µM (inactive) | 15.6 µM (inactive) |  | 9.71 µM (inactive) | 13.9 µM (inactive) | 15.5 µM (inactive) | 15.8 µM (inactive) | 14.8 µM (inactive) | 10.4 µM (inactive) | 6.03 µM (inactive) | 5.16 µM (inactive) |
| Cc1ccc(NC(=O)C2C3CCC(O3)C2C(=O)O)cc1 (configuration not stated) | > 48.8 µM (inactive) | > 45.1 µM (inactive) | > 95.9 µM (inactive) |  | 35.7 µM (inactive) | > 40.2 µM (inactive) | > 44.9 | > 100 µM (inactive) | > 83.9 µM (inactive) | 43.1 µM (inactive) | > 75 µM (inactive) |  | > 87.9 µM (inactive) | > 57.7 µM (inactive) | > 22.3 µM (inactive) | > 52.2 µM (inactive) | > 100 µM (inactive) | 15.7 µM (inactive) | > 48.2 µM (inactive) | 36.1 µM (inactive) |
| CCC(=N\NC(N)=S)/C(C)=N/O | > 100 µM (inactive) |  | > 100 µM (inactive) | > 100 µM (inactive) | > 100 µM (inactive) |  | > 100 | > 100 µM (inactive) | > 100 µM (inactive) | > 100 µM (inactive) | > 100 µM (inactive) | > 100 µM (inactive) |  | > 100 µM (inactive) | > 100 µM (inactive) | > 100 µM (inactive) | > 100 µM (inactive) |  | > 100 µM (inactive) | > 100 µM (inactive) |
| Cc1cccc(C)c1NC(=O)CCCC(=O)C(C#N)c1ccc(Cl)cc1 (configuration not stated) | > 100 µM (inactive) | > 100 µM (inactive) | > 100 µM (inactive) |  | > 100 µM (inactive) | > 100 µM (inactive) | > 100 | > 100 µM (inactive) | > 100 µM (inactive) | > 100 µM (inactive) | > 100 µM (inactive) |  | > 100 µM (inactive) | > 100 µM (inactive) | > 100 µM (inactive) | > 100 µM (inactive) | > 100 µM (inactive) | > 100 µM (inactive) | > 100 µM (inactive) | > 100 µM (inactive) |
| CCC(CO)COC(=O)/C=C/C(=O)OCC(CC)CO (configuration not stated) | > 100 µM (inactive) | > 100 µM (inactive) | > 100 µM (inactive) |  | > 100 µM (inactive) | 22.1 µM (inactive) | > 73.3 | > 100 µM (inactive) | > 100 µM (inactive) | > 100 µM (inactive) | > 100 µM (inactive) |  | 45.1 µM (inactive) | > 100 µM (inactive) | > 89.1 µM (inactive) | > 62.5 µM (inactive) | > 100 µM (inactive) | 30.9 µM (inactive) | 48.6 µM (inactive) | > 81.8 µM (inactive) |
| COc1c(OC)c(N)c2cc(C)c(=O)c(C)cc2c1N | > 100 µM (inactive) | > 100 µM (inactive) | > 100 µM (inactive) |  | 35.4 µM (inactive) | > 100 µM (inactive) | 99.8 | > 100 µM (inactive) | > 100 µM (inactive) | > 100 µM (inactive) |  |  | > 100 µM (inactive) | > 100 µM (inactive) | 18.1 µM (inactive) | > 100 µM (inactive) | > 100 µM (inactive) | 12.4 µM (inactive) | > 100 µM (inactive) | > 100 µM (inactive) |
| NC(CCSCCF)C(=O)O (configuration not stated) | > 100 µM (inactive) | > 100 µM (inactive) |  |  | > 100 µM (inactive) | > 100 µM (inactive) | > 100 | > 100 µM (inactive) | > 100 µM (inactive) | > 100 µM (inactive) | > 100 µM (inactive) |  | > 100 µM (inactive) | > 100 µM (inactive) | > 100 µM (inactive) | > 100 µM (inactive) | > 100 µM (inactive) | > 100 µM (inactive) | > 100 µM (inactive) | > 100 µM (inactive) |
| C=C1CC(CCCl)(c2ccccc2)OC1=O (configuration not stated) | 31.5 µM (inactive) | > 100 µM (inactive) | > 100 µM (inactive) |  | 29 µM (inactive) | 19.8 µM (inactive) | 19.7 | > 100 µM (inactive) | > 100 µM (inactive) | > 59.3 µM (inactive) | 16.2 µM (inactive) |  | 21.1 µM (inactive) | 27.9 µM (inactive) | 20.2 µM (inactive) | 26.1 µM (inactive) | > 100 µM (inactive) | 20.1 µM (inactive) | 33.3 µM (inactive) | 15.7 µM (inactive) |
| COc1nc(OC)nc(Sc2ccc(Sc3ccc(Sc4nc(OC)nc(OC)n4)cc3)cc2)n1 | > 100 µM (inactive) | > 100 µM (inactive) | > 100 µM (inactive) |  | > 100 µM (inactive) | > 100 µM (inactive) | > 100 | > 100 µM (inactive) | > 100 µM (inactive) | > 100 µM (inactive) | > 100 µM (inactive) |  | > 100 µM (inactive) | > 100 µM (inactive) | > 100 µM (inactive) | > 100 µM (inactive) | > 100 µM (inactive) | 7.52 µM (inactive) | > 100 µM (inactive) | > 100 µM (inactive) |
| COc1c(OC2OC(CO)C(O)C(O)C2O)cc2c(c1OC)-c1ccc(OC)c(=O)cc1C(NC(C)=O)CC2 (configuration not stated) | > 100 µM (inactive) | > 100 µM (inactive) | > 87.3 µM (inactive) |  | > 28.3 µM (inactive) | > 100 µM (inactive) | > 100 | > 84.1 µM (inactive) | > 100 µM (inactive) | > 100 µM (inactive) | 61 µM (inactive) |  | > 100 µM (inactive) | > 100 µM (inactive) | > 100 µM (inactive) | > 89.7 µM (inactive) | > 100 µM (inactive) | > 100 µM (inactive) | > 97.3 µM (inactive) | 44.6 µM (inactive) |
| CCCCCC(=O)N[C@H]1CCc2cc(O)c(O)c(O)c2-c2ccc(SC)c(=O)cc21 | 20.3 µM (inactive) | 29 µM (inactive) | 23.4 µM (inactive) |  | 23.3 µM (inactive) | 20.5 µM (inactive) | 22.5 | 38.4 µM (inactive) | 23.3 µM (inactive) | 27.9 µM (inactive) | 48.3 µM (inactive) |  | 27.8 µM (inactive) | 20.9 µM (inactive) | 17.8 µM (inactive) | 35.2 µM (inactive) | 18.1 µM (inactive) | 22.8 µM (inactive) | 6.47 µM (inactive) | 25.7 µM (inactive) |
| C[C@@H]1CC[C@]2(C(=O)O)CC[C@]3(C)C(=CC[C@@H]4[C@@]5(C)CC[C@H](O)C(C)(C)[C@@H]5CC[C@]43C)[C@@H]2[C@]1(C)O [POMOLIC ACID] | 13.6 µM (inactive) | 19 µM (inactive) | 3.22 µM (inactive) |  | 16.4 µM (inactive) | 4.35 µM (inactive) | 10.6 | 16.5 µM (inactive) | 17.9 µM (inactive) | 14.1 µM (inactive) | 13.6 µM (inactive) | 15.5 µM (inactive) | 4.86 µM (inactive) | 3.25 µM (inactive) | 21.9 µM (inactive) | 18.6 µM (inactive) | 16.8 µM (inactive) | 13.9 µM (inactive) | 6.49 µM (inactive) | 4.45 µM (inactive) |
